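Following 48 hours of exposure in 96-well plates, responses at five concentrations were used to interpolate endpoints linearly. Here, GI50 denotes the concentration required for 50% inhibition of growth. TGI marks complete inhibition of growth.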
Experiments:
Assay in all cases: NCI tumour cell line growth inhibition, 48 h
HCT-116 colon = tested on: HCT-116 colon
MALME-3M melanoma = tested on: MALME-3M melanoma
OVCAR-5 ovarian = tested on: OVCAR-5 ovarian
RPMI-8226 leukemia = tested on: RPMI-8226 leukemia
RXF 393 renal = tested on: RXF 393 renal
SK-MEL-5 melanoma = tested on: SK-MEL-5 melanoma
U251 CNS = tested on: U251 CNS
UACC-62 melanoma = tested on: UACC-62 melanoma
DU-145 prostate = tested on: DU-145 prostate
HS 578T breast = tested on: HS 578T breast
SR leukemia = tested on: SR leukemia
MDA-MB-435 = tested on: MDA-MB-435

SMILES | TGI (HCT-116 colon) [µM] | TGI (MALME-3M melanoma) [µM] | TGI (OVCAR-5 ovarian) [µM] | TGI (RPMI-8226 leukemia) [µM] | TGI (RXF 393 renal) [µM] | TGI (SK-MEL-5 melanoma) [µM] | TGI (U251 CNS) [µM] | TGI (UACC-62 melanoma) [µM] | TGI (DU-145 prostate) [µM] | TGI (HS 578T breast) [µM] | TGI (SR leukemia) [µM] | GI50 (DU-145 prostate) [µM] | GI50 (HCT-116 colon) [µM] | GI50 (MALME-3M melanoma) [µM] | GI50 (MDA-MB-435) [µM] | TGI (MDA-MB-435) [µM] | GI50 (OVCAR-5 ovarian) [µM] | GI50 (SK-MEL-5 melanoma) [µM] | GI50 (SR leukemia) [µM] | GI50 (UACC-62 melanoma) [µM]
CN1C(=O)CN2C(Cl)(Cl)C2(c2ccccc2)c2cc(Cl)ccc21 (configuration not stated) | > 100 | > 100 | > 100 | > 100 | > 100 | > 100 | > 100 | > 100 | – | – | – | – | – | – | – | – | – | – | – | –
CCP(=O)(CC)C(Cl)(Cl)C(O)C(Cl)(Cl)Cl (configuration not stated) | > 100 | – | > 100 | > 100 | – | > 100 | > 100 | – | > 100 | > 100 | > 100 | – | – | – | – | – | – | – | – | –
CCCCCCCCCC/C=C/C=O | > 100 | > 100 | > 100 | – | > 100 | > 100 | > 100 | > 100 | – | – | > 100 | – | – | – | – | – | – | – | – | –
NCCCn1c2c(c3ccc([N+](=O)[O-])cc3c1=O)C(=O)c1cc(F)ccc1-2 | 0.134 | 0.161 | 0.71 | – | – | 0.199 | – | 0.165 | 0.451 | – | 0.0205 | < 0.0104 | < 0.0112 | 0.0275 | 0.0762 | 0.923 | 0.122 | 0.0603 | < 0.01 | 0.036
Cc1cc(C)c(NC(=O)/C=C/c2ccccc2)c(C)c1 | – | – | > 100 | > 100 | > 100 | – | > 100 | 93.8 | – | > 100 | > 100 | – | – | – | – | > 100 | – | – | – | –
C#C[C@]1(O)[C@@H](CO)O[C@@H](n2ccc(N)nc2=O)[C@@H]1O | > 33.9 | 0.925 | – | 0.192 | 2.12 | 0.371 | – | 0.4 | 6.22 | > 40 | – | – | – | – | – | 0.219 | – | – | – | –
